# Legend:
# Experiment in all cases: relative viability (nuclei count vs DMSO), 5 days (fraction); higher = more cells survive
# A549 = tested on: A549
# Method in brief: (§1)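 The day after seeding in 1536-well plates, lung cancer cell lines were treated by pin tool with a single drug, or with a fixed anchor-drug dose together with five library-drug doses (not always all listed) in √10 steps. After 5 days, a combined fix-and-stain solution (final 0.05% Triton X-100, 1% formaldehyde, 1 ug/ml Hoechst) was added. Nuclei counted on 4× images gave relative viability as treated counts over vehicle counts, reported as the median of duplicate plates.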
# HCC-366 = tested on: HCC-366
# Method in brief: as §1
# HCC-44 = tested on: HCC-44
# Method in brief: as §1
# LOU-NH91 = tested on: LOU-NH91
# Method in brief: as §1
# LXF-289 = tested on: LXF-289
# Method in brief: as §1
# NCI-H1437 = tested on: NCI-H1437
# Method in brief: as §1
# NCI-H1623 = tested on: NCI-H1623
# Method in brief: as §1
# NCI-H2085 = tested on: NCI-H2085
# Method in brief: as §1
# NCI-H3122 = tested on: NCI-H3122
# Method in brief: as §1
smiles,measurement,setting,value
Cc1sc2c(c1C)C(c1ccc(Cl)cc1)=N[C@@H](CC(=O)OC(C)(C)C)c1nnc(C)n1-2 [JQ1] + N=C(N)NC(=N)NCCc1ccccc1 [Phenformin] (partner 250 µM),relative viability,A549; first compound 0.04 µM,0.171
same,relative viability,A549; first compound 0.1265 µM,0.137
same,relative viability,A549; first compound 0.4 µM,0.14
same,relative viability,A549; first compound 1.265 µM,0.182
same,relative viability,A549; first compound 4 µM,0.21
same,relative viability,HCC-366; first compound 0.04 µM,0.699
same,relative viability,HCC-366; first compound 0.4 µM,0.614
same,relative viability,HCC-366; first compound 1.265 µM,0.412
same,relative viability,HCC-366; first compound 4 µM,0.376
same,relative viability,HCC-44; first compound 0.04 µM,0.201
same,relative viability,HCC-44; first compound 0.1265 µM,0.184
same,relative viability,HCC-44; first compound 0.4 µM,0.161
same,relative viability,HCC-44; first compound 1.265 µM,0.125
same,relative viability,HCC-44; first compound 4 µM,0.111
same,relative viability,LOU-NH91; first compound 0.04 µM,0.735
same,relative viability,LOU-NH91; first compound 0.1265 µM,0.555
same,relative viability,LOU-NH91; first compound 0.4 µM,0.384
same,relative viability,LOU-NH91; first compound 1.265 µM,0.328
same,relative viability,LOU-NH91; first compound 4 µM,0.326
same,relative viability,LXF-289; first compound 0.04 µM,0.518
same,relative viability,LXF-289; first compound 0.1265 µM,0.474
same,relative viability,LXF-289; first compound 0.4 µM,0.444
same,relative viability,LXF-289; first compound 1.265 µM,0.323
same,relative viability,LXF-289; first compound 4 µM,0.316
same,relative viability,NCI-H1437; first compound 0.04 µM,0.274
same,relative viability,NCI-H1437; first compound 0.1265 µM,0.267
same,relative viability,NCI-H1437; first compound 0.4 µM,0.279
same,relative viability,NCI-H1437; first compound 1.265 µM,0.222
same,relative viability,NCI-H1437; first compound 4 µM,0.271
same,relative viability,NCI-H1623; first compound 0.04 µM,0.597
same,relative viability,NCI-H1623; first compound 0.1265 µM,0.628
same,relative viability,NCI-H1623; first compound 0.4 µM,0.547
same,relative viability,NCI-H1623; first compound 1.265 µM,0.486
same,relative viability,NCI-H1623; first compound 4 µM,0.406
same,relative viability,NCI-H2085; first compound 0.04 µM,0.712
same,relative viability,NCI-H2085; first compound 0.1265 µM,0.611
same,relative viability,NCI-H2085; first compound 0.4 µM,0.552
same,relative viability,NCI-H2085; first compound 1.265 µM,0.393
same,relative viability,NCI-H2085; first compound 4 µM,0.426
same,relative viability,NCI-H3122; first compound 0.04 µM,0.362
same,relative viability,NCI-H3122; first compound 0.4 µM,0.377
same,relative viability,NCI-H3122; first compound 1.265 µM,0.313
same,relative viability,NCI-H3122; first compound 4 µM,0.264
COc1cc2nccc(Oc3ccc(NC(=O)Nc4cc(C)on4)c(Cl)c3)c2cc1OC [Tivozanib] + CCNC(=O)c1noc(-c2cc(C(C)C)c(O)cc2O)c1-c1ccc(CN2CCOCC2)cc1 [Luminespib] (partner 0.01 µM),relative viability,HCC-44; first compound 0.005 µM,1.01
same,relative viability,HCC-44; first compound 0.01581 µM,1.06
same,relative viability,HCC-44; first compound 0.05 µM,0.927
same,relative viability,HCC-44; first compound 0.1581 µM,1.19
same,relative viability,HCC-44; first compound 0.5 µM,1.08
same,relative viability,LOU-NH91; first compound 0.005 µM,0.334
same,relative viability,LOU-NH91; first compound 0.01581 µM,0.333
same,relative viability,LOU-NH91; first compound 0.05 µM,0.374
same,relative viability,LOU-NH91; first compound 0.1581 µM,0.33
same,relative viability,LOU-NH91; first compound 0.5 µM,0.35
same,relative viability,LXF-289; first compound 0.005 µM,0.582
same,relative viability,LXF-289; first compound 0.01581 µM,0.611
same,relative viability,LXF-289; first compound 0.05 µM,0.641
same,relative viability,LXF-289; first compound 0.1581 µM,0.689
same,relative viability,LXF-289; first compound 0.5 µM,0.773
same,relative viability,NCI-H1437; first compound 0.005 µM,1.14
same,relative viability,NCI-H1437; first compound 0.01581 µM,1.11
same,relative viability,NCI-H1437; first compound 0.05 µM,1.13
same,relative viability,NCI-H1437; first compound 0.1581 µM,1.13
same,relative viability,NCI-H1437; first compound 0.5 µM,1.11
same,relative viability,NCI-H1623; first compound 0.005 µM,0.466
same,relative viability,NCI-H1623; first compound 0.01581 µM,0.55
same,relative viability,NCI-H1623; first compound 0.05 µM,0.602
same,relative viability,NCI-H1623; first compound 0.5 µM,0.504
same,relative viability,NCI-H2085; first compound 0.005 µM,0.431
same,relative viability,NCI-H2085; first compound 0.01581 µM,0.4
same,relative viability,NCI-H2085; first compound 0.05 µM,0.469
same,relative viability,NCI-H2085; first compound 0.1581 µM,0.431
same,relative viability,NCI-H2085; first compound 0.5 µM,0.522
same,relative viability,NCI-H3122; first compound 0.005 µM,0.0849
same,relative viability,NCI-H3122; first compound 0.01581 µM,0.104
same,relative viability,NCI-H3122; first compound 0.05 µM,0.0902
same,relative viability,NCI-H3122; first compound 0.1581 µM,0.0689
same,relative viability,NCI-H3122; first compound 0.5 µM,0.0976
COc1cc2nccc(Oc3ccc(NC(=O)Nc4cc(C)on4)c(Cl)c3)c2cc1OC [Tivozanib] + N=C(N)NC(=N)NCCc1ccccc1 [Phenformin] (partner 250 µM),relative viability,A549; first compound 0.005 µM,0.171
same,relative viability,A549; first compound 0.01581 µM,0.163
same,relative viability,A549; first compound 0.05 µM,0.19
same,relative viability,A549; first compound 0.1581 µM,0.124
same,relative viability,A549; first compound 0.5 µM,0.209
same,relative viability,HCC-366; first compound 0.005 µM,0.615
same,relative viability,HCC-366; first compound 0.01581 µM,0.588
same,relative viability,HCC-366; first compound 0.05 µM,0.632
same,relative viability,HCC-366; first compound 0.1581 µM,0.643
same,relative viability,HCC-366; first compound 0.5 µM,0.611
same,relative viability,HCC-44; first compound 0.005 µM,0.152
same,relative viability,HCC-44; first compound 0.01581 µM,0.234
same,relative viability,HCC-44; first compound 0.05 µM,0.19
same,relative viability,HCC-44; first compound 0.1581 µM,0.18
same,relative viability,HCC-44; first compound 0.5 µM,0.131
same,relative viability,LOU-NH91; first compound 0.005 µM,0.65
same,relative viability,LOU-NH91; first compound 0.01581 µM,0.667
same,relative viability,LOU-NH91; first compound 0.05 µM,0.748
same,relative viability,LOU-NH91; first compound 0.1581 µM,0.654
same,relative viability,LOU-NH91; first compound 0.5 µM,0.676
same,relative viability,LXF-289; first compound 0.005 µM,0.532
same,relative viability,LXF-289; first compound 0.01581 µM,0.506
same,relative viability,LXF-289; first compound 0.05 µM,0.514
same,relative viability,LXF-289; first compound 0.1581 µM,0.561
same,relative viability,LXF-289; first compound 0.5 µM,0.418
same,relative viability,NCI-H1437; first compound 0.005 µM,0.296
same,relative viability,NCI-H1437; first compound 0.01581 µM,0.289
same,relative viability,NCI-H1437; first compound 0.05 µM,0.316
same,relative viability,NCI-H1437; first compound 0.1581 µM,0.339
same,relative viability,NCI-H1437; first compound 0.5 µM,0.317
same,relative viability,NCI-H1623; first compound 0.005 µM,0.582
same,relative viability,NCI-H1623; first compound 0.01581 µM,0.622
same,relative viability,NCI-H1623; first compound 0.05 µM,0.588
same,relative viability,NCI-H1623; first compound 0.5 µM,0.607
same,relative viability,NCI-H2085; first compound 0.005 µM,0.652
same,relative viability,NCI-H2085; first compound 0.01581 µM,0.723
same,relative viability,NCI-H2085; first compound 0.05 µM,0.711
same,relative viability,NCI-H2085; first compound 0.1581 µM,0.62
same,relative viability,NCI-H2085; first compound 0.5 µM,0.673
same,relative viability,NCI-H3122; first compound 0.005 µM,0.376
same,relative viability,NCI-H3122; first compound 0.01581 µM,0.419
same,relative viability,NCI-H3122; first compound 0.05 µM,0.383
same,relative viability,NCI-H3122; first compound 0.1581 µM,0.361
same,relative viability,NCI-H3122; first compound 0.5 µM,0.344
